This is an account of results in PMC10578352, “Identification of a Protein Arginine Methyltransferase 7 (PRMT7)/Protein Arginine Methyltransferase 9 (PRMT9) Inhibitor” (Journal of Medicinal Chemistry, 2023).

Common to all, as to assay type: biochemical
One assay concerns the target T1, SET7/9/KMT7 (Homo sapiens, UniProt Q8WTS6).
T1 construct: the human recombinant SET7/9 (residues 2–366, C-terminus); GST (N); His (C); purchased Reaction Biology Corporation
T1 sequence (Q8WTS6 2-366): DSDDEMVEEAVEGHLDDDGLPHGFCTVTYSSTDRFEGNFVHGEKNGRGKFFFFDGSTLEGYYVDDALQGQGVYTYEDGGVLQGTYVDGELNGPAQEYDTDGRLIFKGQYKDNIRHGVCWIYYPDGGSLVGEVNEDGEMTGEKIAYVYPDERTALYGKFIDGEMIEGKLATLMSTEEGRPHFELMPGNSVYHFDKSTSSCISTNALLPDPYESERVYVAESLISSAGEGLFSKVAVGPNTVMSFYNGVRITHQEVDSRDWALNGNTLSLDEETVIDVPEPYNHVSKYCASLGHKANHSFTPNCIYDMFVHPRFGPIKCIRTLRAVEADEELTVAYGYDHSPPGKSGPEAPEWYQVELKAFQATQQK
Kind of assay: HotSpot KMT activity assay, SET7/9. The note with it: 10-dose IC50 mode; read-out: ref. cmpd. IC50, SET7/9. An excerpt:
(§1) ; MW = 35.4 kDa; Genbank Accession # NM_018489), or the human recombinant EZH2-containing five-member polycomb repressive complex 2 (including EZH2 residues 2–746, AEBP2 2–517, EED 2–441, RbAp48 2–425, SUZ12 2–739; all full-length; with N-terminal Flag-tag on EED and N-terminal His-tag on all others; MW = 333.8 kDa; Genbank Accession # NM_001203247, NM_001114176, NM_003797, NM_005610, NM_015355), or the human recombinant G9a (residues 913–1193, C-terminus; with an N-terminal His-tag; MW = 34.6 kDa; Genbank Accession # NM_006709.3), or the human recombinant MLL1 complex (including MLL1 residues 3745–3969, C-terminus, WDR5 22–334, C-terminus, RbBP5 1–538, C-terminus, ASH2L 2–534, C-terminus, DPY-30 1–99, C-terminus; N-terminal His-tag on all subunits; MW = 212.0 kDa; Genbank Accession # NM_005933, NM_017588, NM_005057, NM_001105214, NM_0325742), or the human recombinant SET7/9 (residues 2–366, C-terminus; with a N-terminal GST-tag and a C-terminal His-tag; MW = 68.5 kDa; Genbank Accession # NM_030648), or the human recombinant SMYD3 (residues 2–428, C-terminus; C-terminal His-tag; MW = 50.1 kDa; Genbank Accession # NM_001167740), or the human recombinant SUV39H2 (residues 46–410, C-terminus; N-terminal fusion protein with a C-terminal His-tag; MW = 98.8 kDa; GenBank Accession No. NM_001193424), or the human recombinant DOT1L (residues 1–416; N-terminal GST-tag; MW = 80.0 kDa; Genbank Accession # NM_032482) was added to a solution of the proper substrate (oligo nucleosomes for ASH1L, MLL1 complex, and DOT1L, final concentration 0.05 mg/mL; core histone for EZH2 complex and SET7/9, final concentration 0.05 mg/mL; histone H3 for SUV39H2, final concentration 5 μM; histone H3 1–21 for G9a, final concentration 2.5 μM) in freshly prepared reaction buffer (50 mM Tris-HCl (pH 8.5), 5 mM MgCl2, 50 mM NaCl, 1 mM DTT, 1 mM PMSF, 1% DMSO) and gently mixed. […] After incubation for 60 min at 30 °C, the reaction mixture was delivered to filter paper for detection (as assessed by scintillation). […] Values obtained for each compound are mean ± SD determined for two separate experiments.

The next assay concerns the target T2, SMYD3/KMT3E (Homo sapiens, UniProt Q9H7B4).
T2 construct: the human recombinant SMYD3 (residues 2–428, C-terminus); C-terminal His-tag; His (C); purchased Reaction Biology Corporation
T2 sequence (Q9H7B4 2-428): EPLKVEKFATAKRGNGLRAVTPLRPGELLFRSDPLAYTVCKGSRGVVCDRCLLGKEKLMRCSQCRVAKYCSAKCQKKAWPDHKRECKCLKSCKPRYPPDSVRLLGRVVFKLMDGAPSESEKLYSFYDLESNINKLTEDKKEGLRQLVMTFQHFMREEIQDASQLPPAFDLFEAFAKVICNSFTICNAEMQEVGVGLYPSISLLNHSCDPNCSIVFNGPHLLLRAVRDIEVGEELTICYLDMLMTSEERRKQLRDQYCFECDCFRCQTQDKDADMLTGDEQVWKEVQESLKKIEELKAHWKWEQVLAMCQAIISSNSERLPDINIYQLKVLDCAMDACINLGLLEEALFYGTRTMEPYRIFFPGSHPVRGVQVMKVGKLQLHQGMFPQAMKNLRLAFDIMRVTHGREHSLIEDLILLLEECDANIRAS
Kind of assay: HotSpot KMT activity assay, SMYD3.
Source text: as §1

The next assay deals with T3, SUV39H2/KMT1B (Homo sapiens, UniProt Q9H5I1).
T3 construct: the human recombinant SUV39H2 (residues 46–410, C-terminus); His (C); purchased Reaction Biology Corporation
The assay is described as follows: HotSpot KMT activity assay, SUV39H2. The following applies: 10-dose IC50 mode; read-out: ref. cmpd. IC50, SUV39H2.
Source text: as §1

The target of assay [1] is T4, MLL1/KMT2A (5 component complex) (Homo sapiens, UniProt Q03164).
T4 construct: MLL1 residues 3745–3969, C-terminus; His (N); purchased Reaction Biology Corporation
Kind of assay: HotSpot KMT activity assay, MLL1.
Source text: as §1

The structures appear in SMILES notation. pIC50: −log10 of the molar value.

T3 sequence (Q9H5I1 46-410): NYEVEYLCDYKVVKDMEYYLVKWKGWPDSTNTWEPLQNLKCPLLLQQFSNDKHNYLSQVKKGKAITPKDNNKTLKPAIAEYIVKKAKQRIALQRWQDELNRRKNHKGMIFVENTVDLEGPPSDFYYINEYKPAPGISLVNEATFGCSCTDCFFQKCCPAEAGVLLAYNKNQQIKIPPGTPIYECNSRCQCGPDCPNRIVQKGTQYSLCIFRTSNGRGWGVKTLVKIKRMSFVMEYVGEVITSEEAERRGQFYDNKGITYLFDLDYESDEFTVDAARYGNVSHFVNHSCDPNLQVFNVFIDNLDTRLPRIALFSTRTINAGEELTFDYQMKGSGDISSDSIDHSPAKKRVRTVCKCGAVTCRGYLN

For `Nc1ncnc2c1ncn2[C@@H]1O[C@H](CSCC[C@H](N)C(=O)O)[C@@H](O)[C@H]1O` [SAH, S-5′-adenosyl-L-homocysteine, reference compound], the pIC50 at SET7/9/KMT7 is 4.15; at SMYD3/KMT3E, 4.80; on SUV39H2/KMT1B, 4.43; in assay [1], 6.52.
